Experimental data from patent US20260174791A1, “MACROPHAGE MIGRATION INHIBITORY FACTOR (MIF) TARGETING FOR THE TREATMENT OF NON-SMALL CELL LUNG CANCER” (Board of Regents, The University of Texas System, priority 2022, published 2026).

What was measured:
[1] = tested on: lung cancer patients, EGFR or KRAS mutation; details: patients who harbor an EGFR mutation; cited from earlier work
[2] = tested on: NSCLC patients with STK11/LKB1 and/or KEAP1 mutations; test: Clinical data, pembrolizumab plus first-line chemotherapy in NSCLC patients; type: in vivo, human
Text: FIG. 1A is a graph illustrating response rates to pemetrexed/platin/pembrolizumab (PCP) chemo-immunotherapy in STK11 and KEAP1-defined wild type (wt) and mutant subgroups. FIG. 1B is a graph illustrating response rates to pemetrexed/platin/pembrolizumab (PCP) chemo-immunotherapy in STK11 and KEAP1-defined wild type (wt) and mutant subgroups. […] FIG. 1D a Kaplan-Mayer graph illustrating overall survival of STK11/LKB1 and KEAP1 mutant or wt defined patients.

Row | Compound | response rate [1] [%] | refractory disease on pembrolizumab plus standard care first-line chemotherapies ([2]; NSCLC patients (n=139), STK11/LKB1 and/or KEAP1 mutant vs wild type) | clinical benefit (survival) of adding pembrolizumab to chemotherapy ([2]; patients with STK11 and/or KEAP1 genomic alterations, vs chemotherapy alone)
1 | C#Cc1cccc(Nc2ncnc3cc(OCCOC)c(OCCOC)cc23)c1 [erlotinib] | 60 | – | –
2 | pembrolizumab | – | higher percentage of patients with refractory diseases | did not result in clinical benefit
